Measured values from PMC12656268, “Venom Peptides Across Asian and American Tarantulas Utilize Dual Pharmacology to Target Activation and Fast Inactivation of Voltage-Gated Sodium Channels” (Toxins, 2025).
Positions of bridges follow the written chain, without caps; N, C: chain ends. Residues, ends and D or L forms follow the SMILES beside them.

Legend:
[1] = target: NaV1.3 (Homo sapiens, UniProt Q9NY46); assay: Slowing of fast inactivation of NaV1.3; format: cell-based
Experimental: Sodium channel currents were recorded from HEK293 cells expressing human NaV isoforms together with the β1 auxiliary subunit (SB Drug Discovery, Glasgow, UK) using the QPatch 16X automated whole-cell patch-clamp platform (Sophion Bioscience A/S, Ballerup, Denmark). The external recording solution contained (in mM) the following: 140 NaCl, 3 KCl, 1 CaCl2, 1 MgCl2, 0.1 CdCl2, 20 tetraethylammonium chloride (TEA-Cl), and 5 HEPES; pH was adjusted to 7.3 and osmolarity to 320 mOsm. The internal (pipette) solution consisted of (in mM) the following: 140 CsF, 10 NaCl, 10 HEPES, and 1/5 EGTA/CsOH, also adjusted to pH 7.3 and 320 mOsm. Cells were voltage-clamped at a holding potential of −80 mV, and inward Na^+ currents were evoked by 20 ms depolarizing pulses to 0 mV following a 200 ms hyperpolarizing prepulse to −120 mV. To obtain concentration–response curves, cells at holding potential were incubated for 5 min with increasing concentrations of Oa1a peptides. For determining the potency of Oa1a peptides to inhibit peak current, the maximum peak current within the 20 ms at 0 mV was measured. For determining the potency of Oa1a-NH2 to slow fast inactivation, peak current values were measured at 20 ms of the 0 mV depolarization step. Ion currents (INa) were plotted as I/Imax, where I = current value and Imax = highest current value within the experiment.
(§1) For calcium influx experiments, bioactivity comparisons between venom fractions and controls were based on the difference between the maximal and minimal fluorescence intensity values obtained from single-replicate assays. Electrophysiological data analysis was conducted using GraphPad Prism (version 8; GraphPad Software, San Diego, CA, USA). Nonlinear regression was applied to fit the concentration–response relationships using a variable Hill slope: log(inhibitor) versus normalized response for determining IC50 values, and log(agonist) versus normalized response for EC50 calculations. Reversibility and dissociation kinetics were analyzed by fitting data with a single-phase exponential decay model, while voltage-dependence of steady-state activation and inactivation parameters were derived from Boltzmann sigmoid fits of normalized conductance (G/Gmax) or current (I/Imax) values to determine the half-activation or half-inactivation voltages (V50). Data are expressed as mean ± SEM, where n represents the number of individual cells analyzed.

[2] = test system: hNaV1.1 to hNaV1.7; assay: NaV subtype preference across NaV1.1 to NaV1.7, patch clamp; format: cell-based, human; conditions: NaV1.1 to NaV1.7, closed-state voltage protocol
Experimental: Unless otherwise specified, all cell culture reagents were obtained from Life Technologies (Carlsbad, CA, USA). The human neuroblastoma cell line SH-SY5Y (ATCC CRL-2266; Manassas, VA, USA) was maintained in RPMI medium supplemented with 15% fetal bovine serum (FBS) and 2 mM L-glutamine. HEK293 cells stably expressing human NaV channel isoforms together with the β1 auxiliary subunit (SB Drug Discovery, Glasgow, UK) were propagated in Minimal Essential Medium (MEM; Sigma-Aldrich, St. Louis, MO, USA) containing 10% FBS, 100 U/mL penicillin, 100 µg/mL streptomycin, 2 mM L-glutamine, and selective antibiotics (blasticidin, geneticin, and zeocin) at concentrations recommended by the supplier. HEK293T cells expressing the human CaV3.2 channel (a generous gift from Prof. Emmanuel Bourinet, Institut de Génomique Fonctionnelle, Université de Montpellier, France, and Prof. Edward Perez-Reyes, University of Virginia School of Medicine, USA) were grown in Dulbecco’s MEM supplemented with 10% FBS, 100 U/mL penicillin, 100 µg/mL streptomycin, and 750 µg/mL geneticin.
Sodium channel currents were recorded from HEK293 cells expressing human NaV isoforms together with the β1 auxiliary subunit (SB Drug Discovery, Glasgow, UK) using the QPatch 16X automated whole-cell patch-clamp platform (Sophion Bioscience A/S, Ballerup, Denmark). The external recording solution contained (in mM) the following: 140 NaCl, 3 KCl, 1 CaCl2, 1 MgCl2, 0.1 CdCl2, 20 tetraethylammonium chloride (TEA-Cl), and 5 HEPES; pH was adjusted to 7.3 and osmolarity to 320 mOsm. The internal (pipette) solution consisted of (in mM) the following: 140 CsF, 10 NaCl, 10 HEPES, and 1/5 EGTA/CsOH, also adjusted to pH 7.3 and 320 mOsm. […] For determining the potency of Oa1a peptides to inhibit peak current, the maximum peak current within the 20 ms at 0 mV was measured. For determining the potency of Oa1a-NH2 to slow fast inactivation, peak current values were measured at 20 ms of the 0 mV depolarization step. […]
as §1, with “Electrophysiological data analysis was conducted using GraphPad Prism (version 8; GraphPad Software, San Diego, CA, USA). Nonlinear regression was applied to fit the concentration–response relationships using a variable Hill slope: log(inhibitor) versus normalized response for determining IC50 values, and log(agonist) versus normalized response for EC50 calculations.” left out

NaV1.3, sequence (Q9NY46 whole entry, canonical isoform): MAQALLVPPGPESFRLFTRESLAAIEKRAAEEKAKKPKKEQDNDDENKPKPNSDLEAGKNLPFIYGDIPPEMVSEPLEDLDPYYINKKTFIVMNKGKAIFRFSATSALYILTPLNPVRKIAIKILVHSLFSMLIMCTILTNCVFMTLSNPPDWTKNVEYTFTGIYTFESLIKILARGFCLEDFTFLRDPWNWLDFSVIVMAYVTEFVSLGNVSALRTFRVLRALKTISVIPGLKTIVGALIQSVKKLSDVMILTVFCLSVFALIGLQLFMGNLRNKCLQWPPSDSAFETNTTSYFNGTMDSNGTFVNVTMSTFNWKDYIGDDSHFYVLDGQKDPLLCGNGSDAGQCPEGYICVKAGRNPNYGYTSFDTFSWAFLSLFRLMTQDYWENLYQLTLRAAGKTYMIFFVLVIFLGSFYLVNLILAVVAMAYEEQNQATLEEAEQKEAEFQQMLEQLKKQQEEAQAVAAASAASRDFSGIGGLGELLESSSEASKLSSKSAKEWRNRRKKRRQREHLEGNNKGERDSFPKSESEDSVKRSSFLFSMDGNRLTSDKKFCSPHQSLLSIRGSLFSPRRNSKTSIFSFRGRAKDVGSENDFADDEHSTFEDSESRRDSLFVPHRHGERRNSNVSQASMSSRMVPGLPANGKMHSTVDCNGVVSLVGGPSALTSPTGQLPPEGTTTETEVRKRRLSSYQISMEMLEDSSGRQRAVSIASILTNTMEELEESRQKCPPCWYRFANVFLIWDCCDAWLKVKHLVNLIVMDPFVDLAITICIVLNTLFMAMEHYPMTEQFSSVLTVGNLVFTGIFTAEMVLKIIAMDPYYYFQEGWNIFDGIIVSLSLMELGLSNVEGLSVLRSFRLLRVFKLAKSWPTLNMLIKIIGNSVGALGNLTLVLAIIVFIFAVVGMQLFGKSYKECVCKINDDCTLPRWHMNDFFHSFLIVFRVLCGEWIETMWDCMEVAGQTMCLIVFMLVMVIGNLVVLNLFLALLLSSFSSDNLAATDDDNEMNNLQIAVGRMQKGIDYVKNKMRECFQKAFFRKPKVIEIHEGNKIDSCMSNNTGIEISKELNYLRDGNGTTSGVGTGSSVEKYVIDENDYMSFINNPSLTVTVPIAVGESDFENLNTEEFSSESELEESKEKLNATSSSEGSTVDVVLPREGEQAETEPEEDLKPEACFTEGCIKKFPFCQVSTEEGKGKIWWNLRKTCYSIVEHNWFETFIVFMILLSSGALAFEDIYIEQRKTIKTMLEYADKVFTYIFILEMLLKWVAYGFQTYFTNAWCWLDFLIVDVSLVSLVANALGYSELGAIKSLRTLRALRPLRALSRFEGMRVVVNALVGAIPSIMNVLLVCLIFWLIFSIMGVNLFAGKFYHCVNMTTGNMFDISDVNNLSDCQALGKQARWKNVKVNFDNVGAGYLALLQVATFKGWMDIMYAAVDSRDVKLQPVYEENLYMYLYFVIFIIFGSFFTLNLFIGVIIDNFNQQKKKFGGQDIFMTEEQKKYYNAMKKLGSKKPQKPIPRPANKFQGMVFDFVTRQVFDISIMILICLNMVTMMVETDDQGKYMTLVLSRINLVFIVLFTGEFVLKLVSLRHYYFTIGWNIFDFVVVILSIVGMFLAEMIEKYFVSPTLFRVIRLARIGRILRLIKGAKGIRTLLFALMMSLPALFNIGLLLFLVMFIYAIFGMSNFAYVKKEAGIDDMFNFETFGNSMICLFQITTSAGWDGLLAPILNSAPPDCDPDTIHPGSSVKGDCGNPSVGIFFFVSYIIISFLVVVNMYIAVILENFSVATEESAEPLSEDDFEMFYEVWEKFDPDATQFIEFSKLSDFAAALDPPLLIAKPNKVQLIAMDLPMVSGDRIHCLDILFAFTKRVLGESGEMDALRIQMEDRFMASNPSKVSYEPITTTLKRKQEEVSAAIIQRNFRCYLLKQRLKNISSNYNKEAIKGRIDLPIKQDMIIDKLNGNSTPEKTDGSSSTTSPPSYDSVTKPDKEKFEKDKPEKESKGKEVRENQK
NaV1.3, sequence (Q07699 19-218, further chain): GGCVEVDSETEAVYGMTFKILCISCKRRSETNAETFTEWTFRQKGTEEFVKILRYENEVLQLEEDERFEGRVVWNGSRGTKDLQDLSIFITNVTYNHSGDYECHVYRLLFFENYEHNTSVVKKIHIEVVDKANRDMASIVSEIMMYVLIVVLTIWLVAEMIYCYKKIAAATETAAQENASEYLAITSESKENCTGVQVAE

Compound: CC(C)C[C@@H]1NC(=O)[C@H](Cc2ccccc2)NC(=O)[C@H](Cc2ccc(O)cc2)NC(=O)[C@H](CCCNC(=N)N)NC(=O)[C@@H](NC(=O)[C@H](CCC(=O)O)NC(=O)CN)CSSC[C@@H]2NC(=O)[C@@H]3CSSC[C@@H](C(=O)N[C@H](C(=O)N[C@@H](Cc4c[nH]c5ccccc45)C(=O)N[C@@H](CC(=O)O)C(=O)N[C@@H](Cc4c[nH]c5ccccc45)C(=O)N[C@H](C(=O)N[C@@H](Cc4ccccc4)C(=O)O)[C@@H](C)O)C(C)C)NC(=O)[C@H](Cc4c[nH]c5ccccc45)NC(=O)[C@H](CCC(N)=O)NC(=O)[C@H](Cc4c[nH]cn4)NC(=O)[C@H](CCCCN)NC(=O)[C@H](CC(N)=O)NC(=O)[C@H](Cc4c[nH]cn4)NC(=O)[C@H](CSSC[C@H](NC(=O)CNC(=O)CNC1=O)C(=O)N[C@@H](CO)C(=O)N[C@@H](CCC(N)=O)C(=O)NCC(=O)N[C@@H](CCC(=O)O)C(=O)N[C@@H](CCCCN)C(=O)N3)NC(=O)[C@H](C(C)C)NC(=O)[C@H](CC(C)C)NC(=O)[C@H](Cc1c[nH]cn1)NC(=O)[C@H](CCC(=O)O)NC2=O [rOa1a] (H-GECRYFLGGCSQGEKCCEHLVCHNKHQWCVWDWTF-OH; disulfide 3-17, 10-22, 16-29; N-terminus and C-terminus assumed)
- Slowing of fast inactivation of NaV1.3 (in words) ([1]; closed-state voltage protocol, current traces, concentrations up to those of IC50 curves): strongly slowing the fast inactivation of NaV1.3
- Fold less potency in slowing fast inactivation of NaV1.3 compared to sOa1a-NH2 ([1]; ratio of EC50 values): 4.8 fold
- NaV subtype preference of inhibition (in words) [2]: preference for inhibiting NaV1.2, NaV1.3, NaV1.6, and NaV1.7
- NaV subtype preference of inhibition (in words) ([2]; listed as recombinant Oa1a): preference for inhibiting NaV1.2, NaV1.6, and NaV1.7
